Reference: patent US9469616B2, “Cyclic compounds and methods of making and using the same” (Cellceutix Corporation, priority 2011, dated 2016)
Converted amounts (≈) assume the structure as drawn.

Experiments:
[1] = test system: primary murine bone marrow-derived macrophages (BMDMs); assay: Cytokine and chemokine production in BMDM cells; format: cell-based, mouse
Excerpt: The specific self-agonistic effect of Compound 116 along with its elevated agonistic effect with LPS stimulation in RAW 264.7 cells prompted evaluation of Compound 116 activity in primary murine bone marrow-derived macrophages (BMDMs). […] This observation is very similar to the immunomodulatory effect of Compound 116 in RAW 264.7 cells.
It was previously reported that the protective activity of a synthetic cationic peptide against bacterial infection was associated with the induction of chemokines such as CXCL1 from macrophages and/or monocytes. Thus, the ability of this nontoxic, nonpeptidic, antimicrobial compound to modulate both cytokine and chemokine production is encouraging for the design of synthetic molecules with multiple biological functions.

human RBCs = format: cell-based; conditions: 1 h, pH 7.4
Excerpt: A new series of aryl compounds was designed to evaluate the effect of charge and aromatic group hydrophobicity on the biological activity while still maintaining an amphiphilic topology. Four and six cationic charges were investigated, and three different central rings were used to tune the overall hydrophobicity: benzene, naphthalene, and phenylbenzene. The hydrophobicities of the aryl compounds were quantified using reversed-phase HPLC retention times (Rt). The antimicrobial activities (expressed as minimum inhibitory concentration (MIC)) of these compounds were tested against four pathogens, including both Gram-negative and Gram-positive bacteria, and their hemolysis (evaluated in terms of HC50, the lowest concentration that causes 50% hemolysis of red blood cells (RBCs)) was tested against human RBCs.
Cytotoxicity of the compounds is also evaluated in a hemolysis assay using human erythrocytes. Pooled whole human blood is centrifuged to separate the red blood cells (RBC). The isolated RBCs are rinsed and diluted in Tris-buffered saline (TBS buffer, pH 7.4) to obtain a 0.22% RBC stock suspension. 5 μL of a Compound stock solution is added to 45 μL of RBC suspension and incubated with shaking for 1 hour at 37° C. At the conclusion of the incubation time, samples are centrifuged and 30 μL of the supernatant is added to 100 μL of water. OD414 measurements are read for hemoglobin concentration. The bee venom peptide melittin is used as a positive control. EC50 values are determined as described above.
Cytotoxicity is also evaluated in a hemolysis assay using isolated human erythrocytes. Pooled whole human blood is centrifuged to separate the red blood cells (RBC). The isolated RBCs are rinsed and diluted in Tris-buffered saline (TBS buffer, pH 7.4) to obtain a 0.22% RBC stock suspension. […] OD405 measurements are read for hemoglobin concentration. […] EC50 values are determined using a four parameter logistic equation: Y=Bottom+(Top−Bottom)/(1+10^((Log EC50−X)*HillSlope)).

P. aeruginosa (10145) = assay: MIC assay (Table 1); format: cell-based; conditions: Pseudomonas aeruginosa, isolate 10145
E. coli (25922) = assay: MIC assay (Table 1); format: cell-based; conditions: Escherichia coli, isolate 25922
S. aureus (27660) = assay: MIC assay (Table 1); format: cell-based; conditions: Staphylococcus aureus, isolate 27660
NIH/3T3 cells = assay: Cytotoxicity colorimetric assay; format: cell-based; conditions: Mus musculus, NIH3T3, 1 h, one hour incubation in serum-free media
Description: Cytotoxicity of the compounds are evaluated in a colorimetric assay using a transformed human liver cell line (HepG2, HB-8065) and an embryonic mouse cell line (NIH/3T3 cells, CRL-1658). This assay measures the bioreduction of a novel tetrazolium compound to a soluble formazan product by viable cells. HepG2 cells are seeded in 96 well plates at 2×10^4 cells/well in MEM medium with 10% fetal bovine serum (FBS) 24 hours prior to use. NIH/3T3 cells are seeded in 96 well plates at 2×10^4 cells/well in DMEM medium with 10% bovine calf serum (BCS) 24 hours prior to use. Cell monolayers are rinsed in serum-free media and incubated for one hour with a Compound in serum-free media. After incubation, the media is replaced with serum supplemented media and live cells are measured using the Cell Titer 96 Aqueous […] Assay kit (Promega, Madison, Wis.). EC50 values are determined using a four parameter logistic equation: Y=Bottom+(Top−Bottom)/(1+10^((Log EC50−X)*HillSlope)). […] Data is expressed as EC50 in μg/ml. Cytotoxicity is evaluated in a colorimetric assay using a transformed human liver cell line (HepG2, HB-8065) and an embryonic mouse cell line (NIH/3T3 cells, CRL-1658). This assay measures the bioreduction of a novel tetrazolium compound to a soluble formazan product by viable cells. HepG2 cells are seeded in 96 well plates at 3×10^4 cells/well in MEM medium with 10% fetal bovine serum (FBS) 24 hours prior to use. NIH/3T3 cells are seeded in 96 well plates at 2×10^4 cells/well in DMEM medium with 10% bovine calf serum (BCS) 24 hours prior to use. Cell monolayers are rinsed in serum-free media and incubated for one hour with test agent in serum-free media. After incubation, the media is replaced with serum supplemented media and live cells are measured using the Cell Titer 96 Aqueous […] Assay kit (Promega, Madison, Wis.). EC50 values are determined using a four parameter logistic equation: Y=Bottom+(Top−Bottom)/(1+10^((Log EC50−X)*HillSlope)).

For NCCCOc1cc(-c2ccc3ccc(-c4cc(OCCCN)c(OCCCN)c(OCCCN)c4)cc3c2)cc(OCCCN)c1OCCCN [Compound 116], which “LPS-induced TNF production” value ([1]; 5.0 μg/mL preincubation 1 hour, LPS 100 ng/mL 15 hours, FIG. 3A) is on record?
Its value is “significantly increased”.

And the “LPS-induced IL-10 production” value ([1]; 5.0 μg/mL preincubation 1 hour, LPS 100 ng/mL 15 hours, FIG. 3B)?
The value was “inhibited”.

And the TNF production ([1]; 5.0 μg/mL, in the absence of LPS, FIG. 3A)?
The TNF production was 30 pg/mL.

What about the “murine KC (chemokine CXCL1) levels” value ([1]; 5.0 μg/mL, relative to the DMSO control, FIG. 3C) of the same molecule?
The value was “significantly higher levels”.

What about the HC50 (human RBCs) of the same molecule?
Its HC50 is 656 µg/mL.

And the MIC50 (P. aeruginosa (10145))?
Its MIC50 is 25 µg/mL (≈ 34.8 µM).

And the MIC50 (E. coli (25922))?
The MIC50 was 3.13 µg/mL (≈ 4.35 µM).

And the MIC50 (S. aureus (27660))?
The MIC50 was 3.13 µg/mL (≈ 4.35 µM).

And the EC50 (NIH/3T3 cells)?
The EC50 was 165 µg/mL (≈ 230 µM).
